Where two headings read alike, the source gives them in different places. Blank lines part the entries; values can stand above or below the compound they belong to.
How the values were obtained:
Nav 1.5 = Nav 1.5 (Homo sapiens (Human), UniProt Q14524); assay: in-vitro Nav 1.5 PX data; settings: read-out: Nav 1.5 PX IC50
Nav 1.7 = Nav 1.7 (Homo sapiens (Human), UniProt Q15858); assay: in-vitro Nav 1.7 PX data; format: cell-based
Sequence of Nav 1.7 (Q15858 whole entry): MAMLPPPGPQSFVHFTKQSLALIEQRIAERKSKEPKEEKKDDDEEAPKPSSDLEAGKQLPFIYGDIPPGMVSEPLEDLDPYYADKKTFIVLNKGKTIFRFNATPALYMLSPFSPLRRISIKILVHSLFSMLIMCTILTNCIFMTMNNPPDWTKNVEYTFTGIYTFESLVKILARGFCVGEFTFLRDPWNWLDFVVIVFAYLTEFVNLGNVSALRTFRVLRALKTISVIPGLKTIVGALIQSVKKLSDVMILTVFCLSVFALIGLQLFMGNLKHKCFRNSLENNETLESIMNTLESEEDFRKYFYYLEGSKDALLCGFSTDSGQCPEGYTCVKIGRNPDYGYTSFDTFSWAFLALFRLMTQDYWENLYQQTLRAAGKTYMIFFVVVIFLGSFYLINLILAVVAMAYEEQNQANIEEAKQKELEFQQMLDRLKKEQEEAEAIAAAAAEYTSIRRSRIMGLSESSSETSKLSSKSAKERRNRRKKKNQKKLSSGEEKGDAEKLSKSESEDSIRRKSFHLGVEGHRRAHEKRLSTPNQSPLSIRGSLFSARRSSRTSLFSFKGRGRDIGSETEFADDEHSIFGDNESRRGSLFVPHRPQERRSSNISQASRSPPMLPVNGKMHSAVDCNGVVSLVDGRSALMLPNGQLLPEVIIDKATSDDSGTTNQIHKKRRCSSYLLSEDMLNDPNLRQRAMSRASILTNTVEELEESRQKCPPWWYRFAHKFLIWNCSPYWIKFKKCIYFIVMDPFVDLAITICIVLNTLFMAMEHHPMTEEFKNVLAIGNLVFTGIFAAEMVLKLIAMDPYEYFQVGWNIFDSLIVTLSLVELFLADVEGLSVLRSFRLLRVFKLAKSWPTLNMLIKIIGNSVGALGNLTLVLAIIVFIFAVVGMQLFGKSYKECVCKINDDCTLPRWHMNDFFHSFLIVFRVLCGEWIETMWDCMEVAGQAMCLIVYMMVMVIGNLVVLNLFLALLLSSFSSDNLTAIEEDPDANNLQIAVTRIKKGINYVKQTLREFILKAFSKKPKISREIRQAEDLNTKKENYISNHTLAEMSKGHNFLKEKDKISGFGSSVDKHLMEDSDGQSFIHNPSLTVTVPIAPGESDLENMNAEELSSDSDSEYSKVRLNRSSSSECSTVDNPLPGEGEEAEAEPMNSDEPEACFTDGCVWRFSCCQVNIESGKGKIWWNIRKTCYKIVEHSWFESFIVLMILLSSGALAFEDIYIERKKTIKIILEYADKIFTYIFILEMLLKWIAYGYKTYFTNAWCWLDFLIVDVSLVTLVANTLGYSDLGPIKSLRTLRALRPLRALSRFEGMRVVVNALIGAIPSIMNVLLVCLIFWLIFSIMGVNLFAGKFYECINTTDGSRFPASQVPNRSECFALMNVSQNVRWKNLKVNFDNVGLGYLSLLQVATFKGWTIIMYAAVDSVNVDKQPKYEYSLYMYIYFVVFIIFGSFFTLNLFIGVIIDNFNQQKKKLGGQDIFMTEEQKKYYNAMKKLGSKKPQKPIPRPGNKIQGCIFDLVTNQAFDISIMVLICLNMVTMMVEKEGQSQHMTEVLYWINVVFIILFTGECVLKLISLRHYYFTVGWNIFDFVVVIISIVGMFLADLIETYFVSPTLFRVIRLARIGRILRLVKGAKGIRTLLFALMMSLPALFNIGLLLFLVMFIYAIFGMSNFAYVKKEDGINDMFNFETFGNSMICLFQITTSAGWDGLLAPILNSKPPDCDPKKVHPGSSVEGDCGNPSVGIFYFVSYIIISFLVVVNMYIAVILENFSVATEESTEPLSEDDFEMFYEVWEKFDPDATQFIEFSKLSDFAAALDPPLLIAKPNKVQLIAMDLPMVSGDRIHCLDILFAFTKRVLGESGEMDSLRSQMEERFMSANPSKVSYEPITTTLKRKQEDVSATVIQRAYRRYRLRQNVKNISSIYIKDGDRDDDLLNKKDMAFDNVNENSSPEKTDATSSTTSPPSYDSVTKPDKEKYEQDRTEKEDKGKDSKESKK

Sequence of Nav 1.5 (Q14524 whole entry): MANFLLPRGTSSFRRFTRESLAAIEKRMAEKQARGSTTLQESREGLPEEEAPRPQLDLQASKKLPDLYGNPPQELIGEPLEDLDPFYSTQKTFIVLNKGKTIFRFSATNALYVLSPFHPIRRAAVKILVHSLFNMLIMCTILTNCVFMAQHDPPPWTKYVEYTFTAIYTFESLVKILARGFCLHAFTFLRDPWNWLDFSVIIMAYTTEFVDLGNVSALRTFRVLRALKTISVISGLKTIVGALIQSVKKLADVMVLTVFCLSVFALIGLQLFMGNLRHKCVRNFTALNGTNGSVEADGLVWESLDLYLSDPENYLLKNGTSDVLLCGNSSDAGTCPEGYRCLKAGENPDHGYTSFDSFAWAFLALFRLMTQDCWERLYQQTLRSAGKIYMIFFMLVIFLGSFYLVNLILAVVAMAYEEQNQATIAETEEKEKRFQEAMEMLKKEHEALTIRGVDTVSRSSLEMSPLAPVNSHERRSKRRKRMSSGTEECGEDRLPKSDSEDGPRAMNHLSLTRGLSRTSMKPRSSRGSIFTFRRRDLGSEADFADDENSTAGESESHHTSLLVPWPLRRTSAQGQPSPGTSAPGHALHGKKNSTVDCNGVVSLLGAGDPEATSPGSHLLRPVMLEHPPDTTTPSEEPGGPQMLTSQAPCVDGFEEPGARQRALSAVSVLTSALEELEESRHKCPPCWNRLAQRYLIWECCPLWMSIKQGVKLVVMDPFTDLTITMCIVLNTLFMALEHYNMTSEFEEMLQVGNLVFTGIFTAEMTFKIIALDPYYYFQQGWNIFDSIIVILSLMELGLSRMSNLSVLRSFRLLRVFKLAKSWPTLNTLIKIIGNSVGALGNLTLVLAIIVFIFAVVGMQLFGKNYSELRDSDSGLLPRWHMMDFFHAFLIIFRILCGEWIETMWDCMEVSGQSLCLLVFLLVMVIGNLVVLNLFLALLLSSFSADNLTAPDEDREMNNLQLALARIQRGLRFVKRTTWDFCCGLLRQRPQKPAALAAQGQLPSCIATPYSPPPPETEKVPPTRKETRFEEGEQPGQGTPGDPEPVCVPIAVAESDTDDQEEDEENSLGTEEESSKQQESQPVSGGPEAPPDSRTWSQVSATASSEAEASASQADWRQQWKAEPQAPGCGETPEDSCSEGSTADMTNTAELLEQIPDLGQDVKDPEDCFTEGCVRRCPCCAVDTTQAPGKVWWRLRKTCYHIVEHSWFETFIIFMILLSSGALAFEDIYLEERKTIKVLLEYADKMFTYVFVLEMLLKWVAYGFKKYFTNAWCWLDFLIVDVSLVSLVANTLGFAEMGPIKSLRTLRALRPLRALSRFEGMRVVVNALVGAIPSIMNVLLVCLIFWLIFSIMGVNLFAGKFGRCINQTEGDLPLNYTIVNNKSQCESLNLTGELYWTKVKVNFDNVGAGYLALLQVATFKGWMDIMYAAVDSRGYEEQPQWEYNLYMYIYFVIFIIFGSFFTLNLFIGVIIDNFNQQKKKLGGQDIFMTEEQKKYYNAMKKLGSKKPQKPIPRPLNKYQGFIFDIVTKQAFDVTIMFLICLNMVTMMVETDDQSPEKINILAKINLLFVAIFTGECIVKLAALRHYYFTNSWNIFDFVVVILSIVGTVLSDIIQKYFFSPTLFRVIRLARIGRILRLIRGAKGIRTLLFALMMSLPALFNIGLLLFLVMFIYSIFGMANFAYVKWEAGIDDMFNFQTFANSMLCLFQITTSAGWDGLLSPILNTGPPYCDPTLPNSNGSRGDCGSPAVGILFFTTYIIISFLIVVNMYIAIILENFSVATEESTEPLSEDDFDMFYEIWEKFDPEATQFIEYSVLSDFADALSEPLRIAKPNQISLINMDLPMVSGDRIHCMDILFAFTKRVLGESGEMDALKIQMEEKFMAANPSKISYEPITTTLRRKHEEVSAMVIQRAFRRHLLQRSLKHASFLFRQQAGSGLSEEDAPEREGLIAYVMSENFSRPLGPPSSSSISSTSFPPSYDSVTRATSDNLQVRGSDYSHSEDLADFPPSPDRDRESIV

IC50 (Nav 1.7; in-vitro PX data): 0.0917 µM
SMILES: COc1cc(Cl)c(-c2cccc(F)c2)cc1-c1nccc2cc(S(=O)(=O)Nc3ccon3)ccc12 [Example 121, 1-(6-chloro-3′-fluoro-4-methoxy-3-biphenylyl)-N-3-isoxazolyl-6-isoquinolinesulfonamide]
IC50 (Nav 1.5; in-vitro PX data): > 10 µM

IC50 (Nav 1.7; in-vitro Nav 1.7 PX data): 0.0473 µM
SMILES: COc1cc(-c2cccc(C)c2)c(C#N)cc1-c1nccc2cc(S(=O)(=O)Nc3ccncn3)ccc12 [Example 156, 1-(2-cyano-5-methoxy-3′-methyl-4-biphenylyl)-N-4-pyrimidinyl-6-isoquinolinesulfonamide]
IC50 (Nav 1.5; in-vitro Nav 1.5 PX data): 30.8 µM

IC50 (Nav 1.7; in-vitro PX (PatchXpress) data): 0.183 µM
SMILES: COc1cc(-c2cc(F)cnc2OC)c(C)cc1-c1ncnc2cc(S(=O)(=O)Nc3ccon3)ccc12 [Example 198, 4-(4-(5-fluoro-2-methoxy-3-pyridinyl)-2-methoxy-5-methylphenyl)-N-3-isoxazolyl-7-quinazolinesulfonamide]
IC50 (Nav 1.5; in-vitro PX (PatchXpress) data): > 10 µM

IC50 (Nav 1.7; in-vitro PX): 0.0127 µM
SMILES: COc1cc(-c2ccc(F)c(C)c2)c(C#N)cc1-c1nccc2cc(S(=O)(=O)Nc3nncs3)ccc12 [Example 230, 1-(2-cyano-4′-fluoro-5-methoxy-3′-methyl-4-biphenylyl)-N-1,3,4-thiadiazol-2-yl-6-isoquinolinesulfonamide]
IC50 (Nav 1.5; in-vitro PX): > 10 µM

SMILES: COc1cc(-c2cc(C)c(C)cc2C)c(C#N)cc1-c1nccc2cc(S(=O)(=O)Nc3ccncn3)ccc12 [Example 165, 1-(2-cyano-5-methoxy-2′,4′,5′-trimethyl-4-biphenylyl)-N-4-pyrimidinyl-6-isoquinolinesulfonamide]
IC50 (Nav 1.5; in-vitro Nav 1.5 PX data): > 30 µM

SMILES: COc1cc(-c2ccc(F)c(C)n2)c(C)cc1-c1ncnc2cc(S(=O)(=O)Nc3ccon3)ccc12 [Example 33]
IC50 (Nav 1.5; in-vitro PX (PatchXpress) data): > 10 µM

SMILES: COc1cc(-c2cc(C)cc(F)c2)c(C#N)cc1-c1nccc2cc(S(=O)(=O)Nc3ccncn3)ccc12 [Example 164, 1-(2-cyano-3′-fluoro-5-methoxy-5′-methyl-4-biphenylyl)-N-4-pyrimidinyl-6-isoquinolinesulfonamide]
IC50 (Nav 1.5; in-vitro Nav 1.5 PX data): > 30 µM

SMILES: COc1cc(-c2cccc(C(F)(F)F)c2)c(F)cc1-c1nn(C)c(=O)c2cc(S(=O)(=O)Nc3nncs3)ccc12 [Example 234, 1-(2-fluoro-5-methoxy-3′-(trifluoromethyl)-4-biphenylyl)-3-methyl-4-oxo-N-1,3,4-thiadiazol-2-yl-3,4-dihydro-6-phthalazinesulfonamide]
IC50 (Nav 1.5; in-vitro PX): > 10 µM

SMILES: COc1cc(-c2cccc(Cl)c2)c(F)cc1-c1nccc2cc(S(=O)(=O)Nc3ccon3)ccc12 [Example 116, 1-(3′-chloro-2-fluoro-5-methoxy-4-biphenylyl)-N-3-isoxazolyl-6-isoquinolinesulfonamide]
IC50 (Nav 1.5; in-vitro PX data): > 10 µM

SMILES: COc1cc(-c2cccc(F)c2)c(Cl)cc1-c1ncnc2cc(S(=O)(=O)Nc3ccon3)ccc12 [Example 227, 4-(2-chloro-3′-fluoro-5-methoxy-4-biphenylyl)-N-3-isoxazolyl-7-quinazolinesulfonamide]
IC50 (Nav 1.5; in-vitro PX): > 10 µM

SMILES: COc1cc(-c2ccc(C)c(F)c2)c(C#N)cc1-c1nccc2cc(S(=O)(=O)Nc3ccon3)ccc12 [Example 81, 1-(2-cyano-3′-fluoro-5-methoxy-4′-methyl-4-biphenylyl)-N-3-isoxazolyl-6-isoquinolinesulfonamide]
IC50 (Nav 1.5; PatchXpress (PX), in vitro): > 10 µM

SMILES: COc1ccc(F)cc1-c1cc(OC)c(-c2ncnc3cc(S(=O)(=O)Nc4ccon4)ccc23)cc1C [Example 191, 4-(5′-fluoro-2′,5-dimethoxy-2-methyl-4-biphenylyl)-N-3-isoxazolyl-7-quinazolinesulfonamide]
IC50 (Nav 1.5; in-vitro PX (PatchXpress) data): > 10 µM

SMILES: COc1cc(-c2ccc(F)c(Cl)c2)c(C#N)cc1-c1nccc2cc(S(=O)(=O)Nc3nncs3)ccc12 [Example 221, 1-(3′-chloro-2-cyano-4′-fluoro-5-methoxy-4-biphenylyl)-N-1,3,4-thiadiazol-2-yl-6-isoquinolinesulfonamide]
IC50 (Nav 1.5; in-vitro PX): > 10 µM

SMILES: COc1cc(-c2cc(F)cnc2OC)c(C#N)cc1-c1nccc2cc(S(=O)(=O)Nc3ccon3)ccc12 [Example 83, 1-(5-cyano-4-(5-fluoro-2-methoxy-3-pyridinyl)-2-methoxyphenyl)-N-3-isoxazolyl-6-isoquinolinesulfonamide]
IC50 (Nav 1.5; PatchXpress (PX), in vitro): > 10 µM

Reference: patent US9776995B2, “Bicyclic sulfonamide compounds as sodium channel inhibitors” (AMGEN INC., priority 2013, dated 2017)
